Experimental data from publication doi:10.64898/2025.12.30.696991 (bioRxiv, 2026).

What was measured:
Experiment in all cases: Antibiotic disc inhibition zone on Mueller-Hinton agar
Conditions in all cases: experiment performed twice
[1] = tested on: E. coli (TOP10); assay type: cell-based, Escherichia coli
Description: (§1) Susceptible (ATCC 700720) and MDR (ATCC 700408) strains of S. enterica serovar Typhimurium were obtained from American Type Culture Collection (ATCC Manassas, VA) and cultured in nutrient broth (BD Difco, Detroit, MA). Murine macrophage cell line RAW 264.7 (ATCC TIB-71) was maintained in Dulbecco's modified Eagle's medium (DMEM) (GIBCO, Invitrogen, Carlsbad, CA) supplemented with 10% fetal bovine serum (FBS) (GIBCO) and 1% penicillin-streptomycin (P/S) (GIBCO). Cells were cultured at 37°C in a 5% CO2 atmosphere and used up to passage 10 once received from ATCC. Susceptible and MDR activity of S. Typhimurium was confirmed on Mueller-Hinton agar (BD Difco, Detroit, MA) plates with antibiotic discs (Thermo Fisher Scientific, Waltham, MA) and compared to Escherichia coli (TOP10) and S. Typhimurium XEN-33 (Table 3).

[2] = tested on: S. Typhimurium (XEN-33); assay type: cell-based, Salmonella enterica serovar Typhimurium
[3] = tested on: Susc. S. Typhimurium (ATCC700720); assay type: cell-based, Salmonella enterica serovar Typhimurium
Description: as §1, with “ATCC.” for “ATCC. Susceptible and MDR activity of S. Typhimurium was confirmed on Mueller-Hinton agar (BD Difco, Detroit, MA) plates with antibiotic discs (Thermo Fisher Scientific, Waltham, MA) and compared to Escherichia coli (TOP10) and S. Typhimurium XEN-33 (Table 3).”

[4] = tested on: MDR S. Typhimurium (ATCC700408); assay type: cell-based, Salmonella enterica serovar Typhimurium
Description: as §1, with “ATCC.” for “ATCC. Susceptible and MDR activity of S. Typhimurium was confirmed on Mueller-Hinton agar (BD Difco, Detroit, MA) plates with antibiotic discs (Thermo Fisher Scientific, Waltham, MA) and compared to Escherichia coli (TOP10) and S. Typhimurium XEN-33 (Table 3).”

## C[C@H]1COc2c(N3CCN(C)CC3)c(F)cc3c(=O)c(C(=O)O)cn1c23 [Levofloxacin]
[1]
  Disc inhibition zone (diameter): 34 mm
[2]
  Disc inhibition zone (diameter): 27 mm
[3]
  Disc inhibition zone (diameter): 32 mm
[4]
  Disc inhibition zone (diameter): 32 mm

## CCn1cc(C(=O)O)c(=O)c2ccc(C)nc21 [Nalidixic Acid]
[1]
  Disc inhibition zone (diameter): 30 mm
[2]
  Disc inhibition zone (diameter): 20 mm
[3]
  Disc inhibition zone (diameter): 21 mm
[4]
  Disc inhibition zone (diameter): 21 mm

## NC[C@H]1O[C@H](O[C@H]2[C@H](O)[C@@H](O[C@H]3O[C@H](CO)[C@@H](O)[C@H](N)[C@H]3O)[C@H](N)C[C@@H]2N)[C@H](O)[C@@H](O)[C@@H]1O [Kanamycin]
[1]
  Disc inhibition zone (diameter): 20 mm
[2]
  Disc inhibition zone (diameter): 0 mm
[3]
  Disc inhibition zone (diameter): 17 mm
[4]
  Disc inhibition zone (diameter): 17 mm

## CN(C)[C@@H]1C(O)=C(C(N)=O)C(=O)[C@@]2(O)C(O)=C3C(=O)c4c(O)cccc4[C@@](C)(O)[C@H]3C[C@@H]12 [Tetracycline]
[1]
  Disc inhibition zone (diameter): 24 mm
[2]
  Disc inhibition zone (diameter): 0 mm
[3]
  Disc inhibition zone (diameter): 22 mm
[4]
  Disc inhibition zone (diameter): 13 mm

## [H]/N=C(/N)N[C@H]1[C@H](O)[C@@H](O)[C@H](O[C@@H]2O[C@@H](C)[C@](O)(C=O)[C@H]2O[C@@H]2O[C@@H](CO)[C@H](O)[C@@H](O)[C@@H]2NC)[C@@H](N/C(N)=N\[H])[C@@H]1O [Streptomycin]
[1]
  Disc inhibition zone (diameter): 0 mm
[2]
  Disc inhibition zone (diameter): 13 mm
[3]
  Disc inhibition zone (diameter): 12 mm
[4]
  Disc inhibition zone (diameter): 0 mm

## O=C(N[C@H](CO)[C@H](O)c1ccc([N+](=O)[O-])cc1)C(Cl)Cl [Chloramphenicol]
[1]
  Disc inhibition zone (diameter): 28 mm
[2]
  Disc inhibition zone (diameter): 24 mm
[3]
  Disc inhibition zone (diameter): 24 mm
[4]
  Disc inhibition zone (diameter): 0 mm

## CO/N=C(\C(=O)N[C@@H]1C(=O)N2C(C(=O)O)=C(CSc3nc(=O)c(O)nn3C)CS[C@H]12)c1csc(N)n1 [Ceftriaxo]
[1]
  Disc inhibition zone (diameter): 30 mm
[2]
  Disc inhibition zone (diameter): 26 mm
[3]
  Disc inhibition zone (diameter): 26 mm
[4]
  Disc inhibition zone (diameter): 28 mm

## CNC(C)C1CCC(N)C(OC2C(N)CC(N)C(OC3OCC(C)(O)C(NC)C3O)C2O)O1 (centres unmarked) [Gentamicin]
[1]
  Disc inhibition zone (diameter): 17 mm
[2]
  Disc inhibition zone (diameter): 18 mm
[3]
  Disc inhibition zone (diameter): 17 mm
[4]
  Disc inhibition zone (diameter): 18 mm

## O=C(O)c1cn(C2CC2)c2cc(N3CCNCC3)c(F)cc2c1=O [Ciprofloxacin]
[1]
  Disc inhibition zone (diameter): 37 mm
[2]
  Disc inhibition zone (diameter): 25 mm
[3]
  Disc inhibition zone (diameter): 30 mm
[4]
  Disc inhibition zone (diameter): 30 mm

## Cotrimoxazole
[1]
  Disc inhibition zone (diameter): 29 mm
[2]
  Disc inhibition zone (diameter): 0 mm
[3]
  Disc inhibition zone (diameter): 25 mm
[4]
  Disc inhibition zone (diameter): 24 mm

## CC1(C)S[C@@H]2[C@H](NC(=O)[C@H](N)c3ccccc3)C(=O)N2[C@H]1C(=O)O [Ampicillin]
[1]
  Disc inhibition zone (diameter): 17 mm
[2]
  Disc inhibition zone (diameter): 18 mm
[3]
  Disc inhibition zone (diameter): 19 mm
[4]
  Disc inhibition zone (diameter): 0 mm
